Results from PMC4631615 (Bipolar disorders, 2015).
Values joined by “and” are separate entries in the source; they are usually repeats but may differ in a detail not shown here. Equal values may be shown once. Marks after values point to notes of the source that are not given here.

Assays:
SWV mouse fetuses [1] = conditions: mouse, in vivo
acyl-CoA synthetase 4 = conditions: cited from earlier work
various animal models = conditions: cited from earlier work
SWV mouse fetuses [2] = experiment: Skeletal examination of fetuses; assay type: in vivo
[3] = test system: histone deacetylase (HDAC); conditions: cited from earlier work
[4] = test system: patients with bipolar disorder; conditions: Phase IIb; cited from earlier work
NMRI mice = conditions: injected on GD 8 with 3 mmol/kg; cited from earlier work
mouse = conditions: source not given; cited from earlier work
pregnant SWV mice [5] = experiment: Pregnancy outcomes; assay type: in vivo, mouse; conditions: for Dead fetuses/litter / Fetus weight / Implantations/litter / Live fetuses/litter / Resorptions/litter: mean ± SD
pregnant SWV mice [6] = experiment: Maternal body weight and weight gain, teratogenicity study; assay type: in vivo, mouse; conditions: mean ± SD
[7] = 1/3.28 of LD50 (VCD 304.6 mg/kg) p.o. GD 4–17
[8] = 1/4.36 of LD50 (RIS 14.5, VCD 229.2 mg/kg) p.o. GD 4–17
[9] = 1/6.54 of LD50 (RIS 9.6, OLA 32.1, VCD 152.8 mg/kg) p.o. GD 4–17

CCC(C)C(CC)C(N)=O (stereo not drawn) [VCD, 2-ethyl-3-methylpentamide]
Cleft palate, affected fetuses (SWV mouse fetuses [1]; female, SWV): 0
Dilated renal pelvis, affected litters (SWV mouse fetuses [1]; female, SWV): 2/2
Exencephaly, affected fetuses (SWV mouse fetuses [1]; female, SWV): 0
Malposition stomach, affected litters (SWV mouse fetuses [1]; female, SWV): 1/1
Right aortic arch, affected litters (SWV mouse fetuses [1]; female, SWV): 1/1 ^b
Overall teratogenicity under the experimental conditions (SWV mouse fetuses [1]; po): did not show any teratogenic effect
Ki, uncompetitive inhibition of acylation of arachidonic acid (acyl-CoA synthetase 4): 6.38 mM
Anticonvulsant potency relative to VPA (various animal models): 3–10 times
All vertebra: incomplete ossification, affected fetuses (SWV mouse fetuses [2]; [7]): 0
Cervical vertebra: ossified fusion of centrums, affected fetuses (SWV mouse fetuses [2]; [7]): 1/1
Cervical vertebra: ossified fusion of centrums, affected litters (SWV mouse fetuses [2]; [7]): 1/1
Fetuses with skeletal abnormalities, % (SWV mouse fetuses [2]; [7]): 8.6%
Fibula: bent, affected fetuses (SWV mouse fetuses [2]; [7]): 0
Metacarpal: absent ossification, affected fetuses (SWV mouse fetuses [2]; [7]): 1/1
Metacarpal: absent ossification, affected litters (SWV mouse fetuses [2]; [7]): 1/1
Metacarpal: incomplete ossification, affected fetuses (SWV mouse fetuses [2]; [7]): 0
Metatarsal: absent ossification, affected fetuses (SWV mouse fetuses [2]; [7]): 1/1
Metatarsal: absent ossification, affected litters (SWV mouse fetuses [2]; [7]): 1/1
Metatarsal: incomplete ossification, affected fetuses (SWV mouse fetuses [2]; [7]): 0
Ribs: absent 13th, affected fetuses (SWV mouse fetuses [2]; [7]): 0
Ribs: branched, affected fetuses (SWV mouse fetuses [2]; [7]): 0
Skull: incomplete ossification, affected fetuses (SWV mouse fetuses [2]; [7]): 0
Skull: interparietal incomplete ossification, affected fetuses (SWV mouse fetuses [2]; [7]): 1/1
Skull: interparietal incomplete ossification, affected litters (SWV mouse fetuses [2]; [7]): 1/1
Skull: parietal incomplete ossification, affected fetuses (SWV mouse fetuses [2]; [7]): 0
Skull: supraoccipital incomplete ossification, affected fetuses (SWV mouse fetuses [2]; [7]): 0
Sternebra: absent ossification, affected fetuses (SWV mouse fetuses [2]; [7]): 1/1
Sternebra: absent ossification, affected litters (SWV mouse fetuses [2]; [7]): 1/1
Sternebra: incomplete ossification, affected fetuses (SWV mouse fetuses [2]; [7]): 1/1
Sternebra: incomplete ossification, affected litters (SWV mouse fetuses [2]; [7]): 1/1
Sternebra: misaligned, affected fetuses (SWV mouse fetuses [2]; [7]): 0
Sternebra: misshapen, affected fetuses (SWV mouse fetuses [2]; [7]): 3
Sternebra: misshapen, affected litters (SWV mouse fetuses [2]; [7]): 2
Whole skeletal system: incomplete ossification, affected fetuses (SWV mouse fetuses [2]; [7]): 0
All vertebra: incomplete ossification, affected fetuses (SWV mouse fetuses [2]; [8]): 0
Cervical vertebra: ossified fusion of centrums, affected fetuses (SWV mouse fetuses [2]; [8]): 0
Fibula: bent, affected fetuses (SWV mouse fetuses [2]; [8]): 1/1
Fibula: bent, affected litters (SWV mouse fetuses [2]; [8]): 1/1
Metacarpal: absent ossification, affected fetuses (SWV mouse fetuses [2]; [8]): 0
Metacarpal: incomplete ossification, affected fetuses (SWV mouse fetuses [2]; [8]): 0
Metatarsal: absent ossification, affected fetuses (SWV mouse fetuses [2]; [8]): 0
Metatarsal: incomplete ossification, affected fetuses (SWV mouse fetuses [2]; [8]): 0
Ribs: absent 13th, affected fetuses (SWV mouse fetuses [2]; [8]): 3/3
Ribs: absent 13th, affected litters (SWV mouse fetuses [2]; [8]): 3/3
Ribs: branched, affected fetuses (SWV mouse fetuses [2]; [8]): 1/1
Ribs: branched, affected litters (SWV mouse fetuses [2]; [8]): 1/1
Skull: incomplete ossification, affected fetuses (SWV mouse fetuses [2]; [8]): 1/1
Skull: incomplete ossification, affected litters (SWV mouse fetuses [2]; [8]): 1/1
Skull: interparietal incomplete ossification, affected fetuses (SWV mouse fetuses [2]; [8]): 0
Skull: parietal incomplete ossification, affected fetuses (SWV mouse fetuses [2]; [8]): 0
Skull: supraoccipital incomplete ossification, affected fetuses (SWV mouse fetuses [2]; [8]): 0
Sternebra: absent ossification, affected fetuses (SWV mouse fetuses [2]; [8]): 0
Sternebra: incomplete ossification, affected fetuses (SWV mouse fetuses [2]; [8]): 3
Sternebra: incomplete ossification, affected litters (SWV mouse fetuses [2]; [8]): 2
Sternebra: misaligned, affected fetuses (SWV mouse fetuses [2]; [8]): 0
Sternebra: misshapen, affected fetuses (SWV mouse fetuses [2]; [8]): 6
Sternebra: misshapen, affected litters (SWV mouse fetuses [2]; [8]): 4
All vertebra: incomplete ossification, affected fetuses (SWV mouse fetuses [2]; [9]): 0
Cervical vertebra: ossified fusion of centrums, affected fetuses (SWV mouse fetuses [2]; [9]): 0
Fibula: bent, affected fetuses (SWV mouse fetuses [2]; [9]): 0
Metacarpal: absent ossification, affected fetuses (SWV mouse fetuses [2]; [9]): 0
Metacarpal: incomplete ossification, affected fetuses (SWV mouse fetuses [2]; [9]): 0
Metatarsal: absent ossification, affected fetuses (SWV mouse fetuses [2]; [9]): 0
Metatarsal: incomplete ossification, affected fetuses (SWV mouse fetuses [2]; [9]): 0
Ribs: absent 13th, affected fetuses (SWV mouse fetuses [2]; [9]): 3
Ribs: absent 13th, affected litters (SWV mouse fetuses [2]; [9]): 1
Ribs: branched, affected fetuses (SWV mouse fetuses [2]; [9]): 1/1
Ribs: branched, affected litters (SWV mouse fetuses [2]; [9]): 1/1
Skull: incomplete ossification, affected fetuses (SWV mouse fetuses [2]; [9]): 6
Skull: incomplete ossification, affected litters (SWV mouse fetuses [2]; [9]): 2
Skull: interparietal incomplete ossification, affected fetuses (SWV mouse fetuses [2]; [9]): 1/1
Skull: interparietal incomplete ossification, affected litters (SWV mouse fetuses [2]; [9]): 1/1
Skull: parietal incomplete ossification, affected fetuses (SWV mouse fetuses [2]; [9]): 0
Skull: supraoccipital incomplete ossification, affected fetuses (SWV mouse fetuses [2]; [9]): 1/1
Skull: supraoccipital incomplete ossification, affected litters (SWV mouse fetuses [2]; [9]): 1/1
Sternebra: absent ossification, affected fetuses (SWV mouse fetuses [2]; [9]): 2/2
Sternebra: absent ossification, affected litters (SWV mouse fetuses [2]; [9]): 2/2
Sternebra: incomplete ossification, affected fetuses (SWV mouse fetuses [2]; [9]): 0
Sternebra: misaligned, affected fetuses (SWV mouse fetuses [2]; [9]): 1/1
Sternebra: misaligned, affected litters (SWV mouse fetuses [2]; [9]): 1/1
Sternebra: misshapen, affected fetuses (SWV mouse fetuses [2]; [9]): 0
Fetuses with skeletal abnormalities, % (SWV mouse fetuses [2]; mouse, in vivo): 10.4% and 11.1%
Whole skeletal system: incomplete ossification, affected fetuses (SWV mouse fetuses [2]; mouse, in vivo): 0
Inhibition of HDACs [3]: does not inhibit
Tolerated daily dose with minimal side effects [4]: 1500 mg
Embryotoxicity (NMRI mice): did not induce any embryotoxicity
LD50 mouse, oral (mouse): 999 mg/kg
Fetuses sex ratio F/M (pregnant SWV mice [5]; [7]): 57/73
Dead fetuses/litter (pregnant SWV mice [5]; [7]): 0.1 ± 0.2
Fetus weight (pregnant SWV mice [5]; [7]): 0.91 ± 0.06 g
Implantations/litter (pregnant SWV mice [5]; [7]): 14.5 ± 1.7
Live fetuses/litter (pregnant SWV mice [5]; [7]): 13.2 ± 2.8
Resorptions/litter (pregnant SWV mice [5]; [7]): 1.2 ± 1.4
Fetuses sex ratio F/M (pregnant SWV mice [5]; [8]): 58/77
Dead fetuses/litter (pregnant SWV mice [5]; [8]): 0.1 ± 0.3
Fetus weight (pregnant SWV mice [5]; [8]): 0.90 ± 0.07 g
Implantations/litter (pregnant SWV mice [5]; [8]): 14.8 ± 1.6
Live fetuses/litter (pregnant SWV mice [5]; [8]): 13.7 ± 2.0
Resorptions/litter (pregnant SWV mice [5]; [8]): 0.9 ± 0.8
Fetuses sex ratio F/M (pregnant SWV mice [5]; [9]): 71/73
Dead fetuses/litter (pregnant SWV mice [5]; [9]): 0.2 ± 0.4
Fetus weight (pregnant SWV mice [5]; [9]): 0.91 ± 0.07 g
Implantations/litter (pregnant SWV mice [5]; [9]): 14.9 ± 1.7
Live fetuses/litter (pregnant SWV mice [5]; [9]): 13.8 ± 2.1
Resorptions/litter (pregnant SWV mice [5]; [9]): 1.0 ± 0.9
Dams net weight gain (pregnant SWV mice [6]; [7]): 8.6 ± 1.8 grams
Dams weight GD 18 (pregnant SWV mice [6]; [7]): 48.2 ± 2.9 grams
Dams weight gain (pregnant SWV mice [6]; [7]): 20.5 ± 3.5 grams
Dams net weight gain (pregnant SWV mice [6]; [8]): 7.8 ± 2.1 grams
Dams weight GD 18 (pregnant SWV mice [6]; [8]): 47.3 ± 4.2 grams
Dams weight gain (pregnant SWV mice [6]; [8]): 20.1 ± 2.9 grams
Dams net weight gain (pregnant SWV mice [6]; [9]): 7.9 ± 2.1 grams
Dams weight GD 18 (pregnant SWV mice [6]; [9]): 48.5 ± 3.4 grams
Dams weight gain (pregnant SWV mice [6]; [9]): 20.2 ± 3.0 grams
